Assay results published in patent US20240082221A1, “COMPOSITIONS AND METHODS FOR THE IDENTIFICATION OF COMPOUNDS THAT PROTECT AGAINST LIPOFUSCIN CYTOTOXICITY” (priority 2021, published 2024).

Test system: LLO-induced atypical necroptosis
Assay: LLO-induced atypical necroptosis, protection assay
Type: cell-based

| Compound | protection against LLO-induced atypical necroptosis |
| --- | --- |
| N=C1S/C(=C\c2cn[nH]c2-c2ccc(F)cc2)C(=O)N1c1nccs1 [Nec7, Necrostatin 7] | preventable |
| [O-][n+]1cccc(/C(Cl)=N/OC[C@H](O)CN2CCCCC2)c1 [arimoclomol] | preventable |
